From ChEMBL document CHEMBL4396872, “Pharmacokinetics-Driven Optimization of 4(3 H)-Pyrimidinones as Phosphodiesterase Type 5 Inhibitors Leading to TPN171, a Clinical Candidate for the Treatment of Pulmonary Arterial Hypertension” (J Med Chem, 2019)
One block for each molecule: values may come before it. Active and inactive are the calls of the source. No cut-off for these calls is given here.

What was measured:
[1] = target: Phosphodiesterase 1 (Homo sapiens, UniProt P54750+Q01064+Q14123); assay: Inhibition of N-terminal GST-tagged human PDE1 expressed in baculovirus infected sf9 cells using [3H]cAMP as substrate measured after 30 mins by scintillation proximity assay
[2] = Clearance in Sprague-Dawley rat at 1 mg/kg, iv measured up to 24 hrs by LC-MS/MS analysis; format: ADME, organism-based; settings: in vivo
[3] = target: T1, cGMP-specific 3',5'-cyclic phosphodiesterase (Homo sapiens, UniProt O76074)
[4] = target: Cone cGMP-specific 3',5'-cyclic phosphodiesterase subunit alpha' (Homo sapiens, UniProt P51160); assay: Inhibition of N-terminal GST-tagged human PDE6C expressed in baculovirus infected sf9 cells using [3H]cGMP as substrate measured after 30 mins by scintillation proximity assay
Sequence of Cone cGMP-specific 3',5'-cyclic phosphodiesterase subunit alpha' (P51160 whole entry): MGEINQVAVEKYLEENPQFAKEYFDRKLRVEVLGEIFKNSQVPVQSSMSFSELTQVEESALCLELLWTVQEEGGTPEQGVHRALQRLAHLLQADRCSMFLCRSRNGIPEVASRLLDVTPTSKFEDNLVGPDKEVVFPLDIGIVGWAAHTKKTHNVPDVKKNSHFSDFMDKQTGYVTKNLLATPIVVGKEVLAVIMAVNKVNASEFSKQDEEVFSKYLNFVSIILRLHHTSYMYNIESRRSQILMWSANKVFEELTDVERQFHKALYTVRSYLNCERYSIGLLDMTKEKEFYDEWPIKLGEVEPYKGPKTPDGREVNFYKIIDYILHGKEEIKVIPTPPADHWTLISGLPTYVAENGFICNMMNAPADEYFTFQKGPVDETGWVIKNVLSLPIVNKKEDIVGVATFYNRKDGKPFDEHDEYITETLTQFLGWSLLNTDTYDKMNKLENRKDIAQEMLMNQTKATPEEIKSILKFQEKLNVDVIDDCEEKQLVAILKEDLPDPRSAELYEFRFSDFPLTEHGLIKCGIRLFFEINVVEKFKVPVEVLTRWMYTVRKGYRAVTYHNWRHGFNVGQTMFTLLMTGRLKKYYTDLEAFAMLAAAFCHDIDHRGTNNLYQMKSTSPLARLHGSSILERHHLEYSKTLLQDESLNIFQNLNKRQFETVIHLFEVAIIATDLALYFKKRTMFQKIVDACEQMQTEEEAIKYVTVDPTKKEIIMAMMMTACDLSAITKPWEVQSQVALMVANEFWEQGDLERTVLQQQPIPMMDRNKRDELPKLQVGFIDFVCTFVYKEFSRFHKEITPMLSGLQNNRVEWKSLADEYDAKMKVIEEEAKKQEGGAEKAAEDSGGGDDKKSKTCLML

[5] = AUC (0 to infinity) in Sprague-Dawley rat at 1 mg/kg, iv measured up to 24 hrs by LC-MS/MS analysis; format: ADME, organism-based; set-up: dose 1 mg/kg, time infinity, route intravenous; settings: in vivo
[6] = target: T1, cGMP-specific 3',5'-cyclic phosphodiesterase; remark: listed apart in the source
[7] = MRT in Sprague-Dawley rat at 1 mg/kg, po measured up to 24 hrs by LC-MS/MS analysis; format: ADME, organism-based; settings: in vivo
[8] = AUC (0 to t) in Sprague-Dawley rat at 1 mg/kg, po measured up to 24 hrs by LC-MS/MS analysis; format: ADME, organism-based; set-up: time < 24 hr, dose 1 mg/kg, route oral; settings: in vivo
[9] = Half-life in Beagle dog at 0.5 mg/kg, iv measured up to 24 hrs by LC-MS/MS analysis; format: ADME, organism-based, Canis lupus familiaris; settings: in vivo
[10] = test system: Rattus norvegicus; assay: Antihypertensive activity in spontaneously hypertensive rat assessed as reduction in mean arterial pressure at 20 mg/kg administered via single gavage and measured at 4 hrs; format: functional, organism-based
[11] = test system: Rattus norvegicus; assay: […] activity in MCT-induced pulmonary arterial hypertension Sprague-Dawley rat model assessed as reduction in mean pulmonary artery pressure at 100 mg/kg administered once daily for 21 days starting from 21 days post-MCT challenge by right cardiac catheter method; format: functional, organism-based
[12] = target: T1, cGMP-specific 3',5'-cyclic phosphodiesterase; remark: listed apart in the source
[13] = AUC (0 to infinity) in Sprague-Dawley rat at 1 mg/kg, po measured up to 24 hrs by LC-MS/MS analysis; format: ADME, organism-based; set-up: dose 1 mg/kg, route oral, time infinity; settings: in vivo
[14] = test system: Rattus norvegicus; assay: Antihypertensive activity in spontaneously hypertensive rat assessed as reduction in mean arterial pressure at 20 mg/kg administered via single gavage measured up to 24 hrs; format: functional, organism-based
[15] = test system: Rattus norvegicus; assay: […] activity in MCT-induced pulmonary arterial hypertension Sprague-Dawley rat model assessed as reduction in mean pulmonary artery pressure at 25 mg/kg administered once daily for 21 days starting from 21 days post-MCT challenge by right cardiac catheter method; format: functional, organism-based
[16] = AUC (0 to t) in Sprague-Dawley rat at 1 mg/kg, iv measured up to 24 hrs by LC-MS/MS analysis; format: ADME, organism-based; set-up: time < 24 hr, dose 1 mg/kg, route intravenous; settings: in vivo
[17] = Volume of distribution at steady state in Sprague-Dawley rat at 1 mg/kg, iv measured up to 24 hrs by LC-MS/MS analysis; format: ADME, organism-based; settings: in vivo, read-out: Vdss
[18] = Oral bioavailability Beagle dog at 0.5 mg/kg measured up to 24 hrs by LC-MS/MS analysis; format: ADME, organism-based, Canis lupus familiaris; settings: in vivo
[19] = Tmax in Beagle dog at 0.5 mg/kg, po measured up to 24 hrs by LC-MS/MS analysis; format: ADME, organism-based, Canis lupus familiaris; settings: in vivo
[20] = AUC (0 to t) in Beagle dog at 0.5 mg/kg, po measured up to 24 hrs by LC-MS/MS analysis; format: ADME, organism-based, Canis lupus familiaris; set-up: time < 24 hr, dose 0.5 mg/kg, route oral; settings: in vivo
[21] = target: Dual 3',5'-cyclic-AMP and -GMP phosphodiesterase 11A (Homo sapiens, UniProt Q9HCR9); assay: Inhibition of N-terminal GST-tagged human PDE11A4 expressed in baculovirus infected sf9 cells using [3H]cGMP as substrate measured after 30 mins by scintillation proximity assay
Sequence of Dual 3',5'-cyclic-AMP and -GMP phosphodiesterase 11A (Q9HCR9 whole entry): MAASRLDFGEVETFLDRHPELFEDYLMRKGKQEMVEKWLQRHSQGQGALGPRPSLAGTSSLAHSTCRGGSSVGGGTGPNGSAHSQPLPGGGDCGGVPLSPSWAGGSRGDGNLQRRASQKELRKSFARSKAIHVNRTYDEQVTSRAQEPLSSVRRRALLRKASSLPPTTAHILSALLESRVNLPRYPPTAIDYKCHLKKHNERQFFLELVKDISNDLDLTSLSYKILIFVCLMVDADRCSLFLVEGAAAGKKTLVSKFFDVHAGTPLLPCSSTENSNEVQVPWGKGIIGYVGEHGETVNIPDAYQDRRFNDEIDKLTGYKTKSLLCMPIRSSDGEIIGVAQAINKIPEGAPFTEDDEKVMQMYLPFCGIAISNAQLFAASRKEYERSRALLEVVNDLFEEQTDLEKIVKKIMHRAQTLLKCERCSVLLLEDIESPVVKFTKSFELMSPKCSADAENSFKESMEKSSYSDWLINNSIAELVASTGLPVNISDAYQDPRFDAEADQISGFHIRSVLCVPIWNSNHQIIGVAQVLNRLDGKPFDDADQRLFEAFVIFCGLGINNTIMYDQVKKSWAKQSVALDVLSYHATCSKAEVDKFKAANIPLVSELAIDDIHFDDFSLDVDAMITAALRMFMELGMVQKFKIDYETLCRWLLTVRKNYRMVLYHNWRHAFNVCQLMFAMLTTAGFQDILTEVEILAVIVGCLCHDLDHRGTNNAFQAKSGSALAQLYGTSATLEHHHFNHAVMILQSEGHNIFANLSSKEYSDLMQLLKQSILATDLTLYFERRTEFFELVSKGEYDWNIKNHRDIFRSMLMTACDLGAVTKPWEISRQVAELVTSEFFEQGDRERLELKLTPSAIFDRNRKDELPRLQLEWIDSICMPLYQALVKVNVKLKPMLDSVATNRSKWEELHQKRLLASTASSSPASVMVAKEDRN

[22] = Cmax in Beagle dog at 0.5 mg/kg, po measured up to 24 hrs by LC-MS/MS analysis; format: ADME, organism-based, Canis lupus familiaris; set-up: dose 0.5 mg/kg, route oral; settings: in vivo
[23] = test system: Rattus norvegicus; assay: […] activity in MCT-induced pulmonary arterial hypertension Sprague-Dawley rat model assessed as reduction in mean pulmonary artery pressure at 1 mg/kg administered once daily for 21 days starting from 21 days post-MCT challenge by right cardiac catheter method; format: functional, organism-based
[24] = Tmax in Sprague-Dawley rat at 1 mg/kg, po measured up to 24 hrs by LC-MS/MS analysis; format: ADME, organism-based; settings: in vivo
[25] = Half-life in Beagle dog at 0.5 mg/kg, po measured up to 24 hrs by LC-MS/MS analysis; format: ADME, organism-based, Canis lupus familiaris; settings: in vivo
[26] = Cmax in Sprague-Dawley rat at 1 mg/kg, po measured up to 24 hrs by LC-MS/MS analysis; format: ADME, organism-based; set-up: dose 1 mg/kg, route oral; settings: in vivo
[27] = Terminal half life in human at 5 mg, po administered once daily measured under phase 1 clinical trials; format: ADME, organism-based; settings: in vivo, read-out: beta t1/2 (converted)
[28] = MRT in Sprague-Dawley rat at 1 mg/kg, iv measured up to 24 hrs by LC-MS/MS analysis; format: ADME, organism-based; settings: in vivo
[29] = Volume of distribution at steady state in Beagle dog at 0.5 mg/kg, iv measured up to 24 hrs by LC-MS/MS analysis; format: ADME, organism-based, Canis lupus familiaris; settings: in vivo, read-out: Vdss
[30] = AUC (0 to infinity) in Beagle dog at 0.5 mg/kg, po measured up to 24 hrs by LC-MS/MS analysis; format: ADME, organism-based, Canis lupus familiaris; set-up: dose 0.5 mg/kg, time infinity, route oral; settings: in vivo
[31] = AUC (0 to t) in Beagle dog at 0.5 mg/kg, iv measured up to 24 hrs by LC-MS/MS analysis; format: ADME, organism-based, Canis lupus familiaris; set-up: time < 24 hr, dose 0.5 mg/kg, route intravenous; settings: in vivo
[32] = AUC (0 to infinity) in Beagle dog at 0.5 mg/kg, iv measured up to 24 hrs by LC-MS/MS analysis; format: ADME, organism-based, Canis lupus familiaris; set-up: dose 0.5 mg/kg, time infinity, route intravenous; settings: in vivo
[33] = MRT in Beagle dog at 0.5 mg/kg, po measured up to 24 hrs by LC-MS/MS analysis; format: ADME, organism-based, Canis lupus familiaris; settings: in vivo
[34] = MRT in Beagle dog at 0.5 mg/kg, iv measured up to 24 hrs by LC-MS/MS analysis; format: ADME, organism-based, Canis lupus familiaris; settings: in vivo
[35] = Oral bioavailability in Sprague-Dawley rat at 1 mg/kg measured up to 24 hrs by LC-MS/MS analysis; format: ADME, organism-based; settings: in vivo
[36] = test system: Rattus norvegicus; assay: Antihypertensive activity in spontaneously hypertensive rat assessed as reduction in mean arterial pressure at 20 mg/kg administered via single gavage and measured at 2 hrs; format: functional, organism-based
[37] = Half-life in Sprague-Dawley rat at 1 mg/kg, po measured up to 24 hrs by LC-MS/MS analysis; format: ADME, organism-based; settings: in vivo
[38] = Half-life in Sprague-Dawley rat at 1 mg/kg, iv measured up to 24 hrs by LC-MS/MS analysis; format: ADME, organism-based; settings: in vivo
[39] = Clearance in Beagle dog at 0.5 mg/kg, iv measured up to 24 hrs by LC-MS/MS analysis; format: ADME, organism-based, Canis lupus familiaris; settings: in vivo
[40] = Metabolic stability in human liver microsomes assessed as parent compound remaining at 1 uM in presence of NADPH after 30 mins by LC-MS/MS analysis; format: ADME, Microsome; settings: read-out: Stability
[41] = species: Homo sapiens; assay: Selectivity ratio of IC50 for N-terminal GST-tagged human PDE6C to IC50 for N-terminal GST-tagged human PDE5A1
[42] = target: T1, cGMP-specific 3',5'-cyclic phosphodiesterase; assay: Inhibition of N-terminal GST-tagged human PDE5A1 expressed in baculovirus infected sf9 cells using [3H]cGMP as substrate measured after 30 mins by scintillation proximity assay
[43] = Clearance in iv dosed rat; format: ADME, organism-based; settings: in vivo
[44] = target: High affinity cAMP-specific and IBMX-insensitive 3',5'-cyclic phosphodiesterase 8A (Homo sapiens, UniProt O60658); assay: Inhibition of N-terminal GST-tagged full length human PDE8A1 expressed in baculovirus infected sf9 cells using [3H]cAMP as substrate measured after 30 mins by scintillation proximity assay
Sequence of High affinity cAMP-specific and IBMX-insensitive 3',5'-cyclic phosphodiesterase 8A (O60658 whole entry): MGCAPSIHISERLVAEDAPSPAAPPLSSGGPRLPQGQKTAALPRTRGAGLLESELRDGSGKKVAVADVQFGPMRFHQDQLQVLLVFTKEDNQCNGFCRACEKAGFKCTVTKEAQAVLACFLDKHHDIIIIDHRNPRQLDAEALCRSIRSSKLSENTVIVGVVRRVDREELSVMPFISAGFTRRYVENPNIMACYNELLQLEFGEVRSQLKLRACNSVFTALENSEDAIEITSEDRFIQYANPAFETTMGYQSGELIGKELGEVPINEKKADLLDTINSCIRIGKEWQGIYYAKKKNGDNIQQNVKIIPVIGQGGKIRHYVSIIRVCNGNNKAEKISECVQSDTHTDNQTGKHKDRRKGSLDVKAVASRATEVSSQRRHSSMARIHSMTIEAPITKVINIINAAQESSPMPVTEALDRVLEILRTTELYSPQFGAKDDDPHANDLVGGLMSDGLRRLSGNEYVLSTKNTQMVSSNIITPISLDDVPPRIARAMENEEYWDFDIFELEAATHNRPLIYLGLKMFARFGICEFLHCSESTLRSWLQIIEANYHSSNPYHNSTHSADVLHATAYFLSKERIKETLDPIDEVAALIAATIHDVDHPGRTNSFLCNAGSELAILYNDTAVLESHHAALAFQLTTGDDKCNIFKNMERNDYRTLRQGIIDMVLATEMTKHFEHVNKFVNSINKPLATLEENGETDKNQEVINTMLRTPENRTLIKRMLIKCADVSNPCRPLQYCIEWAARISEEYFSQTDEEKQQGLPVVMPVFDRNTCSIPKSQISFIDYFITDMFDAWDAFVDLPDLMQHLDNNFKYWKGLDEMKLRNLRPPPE

[45] = target: High affinity cGMP-specific 3',5'-cyclic phosphodiesterase 9A (Homo sapiens, UniProt O76083); assay: Inhibition of N-terminal GST-tagged full length human PDE9A2 expressed in baculovirus infected sf9 cells using [3H]cGMP as substrate measured after 30 mins by scintillation proximity assay
Sequence of High affinity cGMP-specific 3',5'-cyclic phosphodiesterase 9A (O76083 whole entry): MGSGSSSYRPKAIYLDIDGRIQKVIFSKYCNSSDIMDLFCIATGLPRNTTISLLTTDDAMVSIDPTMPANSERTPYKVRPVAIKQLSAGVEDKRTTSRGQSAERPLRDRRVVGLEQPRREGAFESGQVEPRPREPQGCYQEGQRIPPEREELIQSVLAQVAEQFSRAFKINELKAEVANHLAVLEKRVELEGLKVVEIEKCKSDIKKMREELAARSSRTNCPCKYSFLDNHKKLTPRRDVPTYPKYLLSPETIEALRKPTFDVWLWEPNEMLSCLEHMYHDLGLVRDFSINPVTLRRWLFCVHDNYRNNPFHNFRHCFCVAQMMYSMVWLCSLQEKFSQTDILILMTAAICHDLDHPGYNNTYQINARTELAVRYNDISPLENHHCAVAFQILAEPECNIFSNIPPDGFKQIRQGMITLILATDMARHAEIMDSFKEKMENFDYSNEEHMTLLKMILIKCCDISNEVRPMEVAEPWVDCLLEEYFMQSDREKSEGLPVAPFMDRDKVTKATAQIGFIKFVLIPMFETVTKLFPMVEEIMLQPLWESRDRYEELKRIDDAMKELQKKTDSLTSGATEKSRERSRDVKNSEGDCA

[46] = target: cAMP and cAMP-inhibited cGMP 3',5'-cyclic phosphodiesterase 10A (Homo sapiens, UniProt Q9Y233); assay: Inhibition of N-terminal GST-tagged human PDE10A expressed in baculovirus infected sf9 cells using [3H]cAMP as substrate measured after 30 mins by scintillation proximity assay
Sequence of cAMP and cAMP-inhibited cGMP 3',5'-cyclic phosphodiesterase 10A (Q9Y233 whole entry): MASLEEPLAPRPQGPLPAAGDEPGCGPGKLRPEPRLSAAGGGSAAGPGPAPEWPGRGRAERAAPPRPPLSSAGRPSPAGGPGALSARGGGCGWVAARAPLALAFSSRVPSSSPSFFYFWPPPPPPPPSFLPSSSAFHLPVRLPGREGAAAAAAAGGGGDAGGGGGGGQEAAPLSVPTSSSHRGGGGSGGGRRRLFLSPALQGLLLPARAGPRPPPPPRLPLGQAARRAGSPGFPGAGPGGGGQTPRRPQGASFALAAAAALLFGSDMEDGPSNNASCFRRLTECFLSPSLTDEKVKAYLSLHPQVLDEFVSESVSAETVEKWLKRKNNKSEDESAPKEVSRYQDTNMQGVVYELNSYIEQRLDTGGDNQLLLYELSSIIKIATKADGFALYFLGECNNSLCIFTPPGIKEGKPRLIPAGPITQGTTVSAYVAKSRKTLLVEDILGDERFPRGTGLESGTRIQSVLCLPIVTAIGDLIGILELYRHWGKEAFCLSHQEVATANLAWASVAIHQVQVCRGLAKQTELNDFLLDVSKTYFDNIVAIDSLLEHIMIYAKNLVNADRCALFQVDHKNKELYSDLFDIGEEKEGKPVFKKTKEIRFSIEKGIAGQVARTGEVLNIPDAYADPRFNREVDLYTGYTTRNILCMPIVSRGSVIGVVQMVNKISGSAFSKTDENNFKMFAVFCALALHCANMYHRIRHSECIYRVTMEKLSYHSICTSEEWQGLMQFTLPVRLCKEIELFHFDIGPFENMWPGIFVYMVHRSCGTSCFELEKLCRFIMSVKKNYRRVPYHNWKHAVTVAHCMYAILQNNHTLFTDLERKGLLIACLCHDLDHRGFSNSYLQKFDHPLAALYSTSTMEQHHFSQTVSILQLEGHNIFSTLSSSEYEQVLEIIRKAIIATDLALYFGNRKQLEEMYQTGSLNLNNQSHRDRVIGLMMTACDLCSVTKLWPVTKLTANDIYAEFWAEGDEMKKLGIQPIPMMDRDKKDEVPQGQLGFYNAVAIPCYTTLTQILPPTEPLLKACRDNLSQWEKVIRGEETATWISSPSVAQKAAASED

[47] = target: cGMP-dependent 3',5'-cyclic phosphodiesterase (Homo sapiens, UniProt O00408); assay: Inhibition of human PDE2A1 expressed in baculovirus infected sf9 cells using [3H]cAMP as substrate measured after 30 mins by scintillation proximity assay
[48] = target: Phosphodiesterase 3 (Homo sapiens, UniProt Q14432+Q13370); assay: Inhibition of N-terminal GST-tagged human PDE3 expressed in baculovirus infected sf9 cells using [3H]cAMP as substrate measured after 30 mins by scintillation proximity assay
[49] = target: Phosphodiesterase 7 (Homo sapiens, UniProt Q13946+Q9NP56); assay: Inhibition of N-terminal GST-tagged human PDE7 expressed in baculovirus infected sf9 cells using [3H]cAMP as substrate measured after 30 mins by scintillation proximity assay
[50] = Volume of distribution at steady state in iv dosed rat; format: ADME, organism-based; settings: in vivo

Ratio IC50 [41]: 10
IC50 [42]: 5.33 nM
Structure (SMILES): CCCOc1ccc(N)cc1-c1nc(CC)c(CC)c(=O)[nH]1

Ratio IC50 [41]: 28
remaining at 0.5 h, 1 µM [40]: 27%
Structure (SMILES): CCCOc1ccc(NS(C)(=O)=O)cc1-c1nc(CC)c(CC)c(=O)[nH]1

More lines, now with the values behind:

Structure (SMILES): CCCOc1ccc(NC(=O)CN2CCN(C)CC2)cc1-c1nc(CC)c(CC)c(=O)[nH]1
IC50 [1]: 3640 nM
clearance [2]: 37.7 mL/min/kg
deltaH [3]: -21.5 kcal/mol
IC50 [4]: 19.8 nM
AUC [5]: 412 ng·h/mL
deltaG [6]: -9.81 kcal/mol
MRT [7]: 5.56 h
AUCt [8]: 268 ng·h/mL
half-life [9]: 4.5 h
Activity [10]: Active
Activity [11]: Active
-TdeltaS [12]: 11.7 kcal/mol
AUC [13]: 284 ng·h/mL
Activity [14]: Active
Activity [15]: Active
AUCt [16]: 403 ng·h/mL
Vd [17]: 4.97 L/kg
bioavailability [18]: 67%
Tmax [19]: 1.9 h
AUCt [20]: 495 ng·h/mL
IC50 [21]: 998 nM
Cmax [22]: 66.5 ng/mL
Activity [23]: Active
Tmax [24]: 2.8 h
half-life [25]: 4.89 h
Cmax [26]: 43.9 ng/mL
half-life [27]: 10.9 h
MRT [28]: 2.22 h
Vd [29]: 3.83 L/kg
AUC [30]: 514 ng·h/mL
AUCt [31]: 752 ng·h/mL
AUC [32]: 773 ng·h/mL
MRT [33]: 7.21 h
MRT [34]: 6.07 h
bioavailability [35]: 66.4%
Activity [36]: Active
half-life [37]: 2.82 h
half-life [38]: 2.4 h
clearance [39]: 10.8 mL/min/kg
remaining at 0.5 h, 1 µM [40]: 91%

Structure (SMILES): CN1CC(=O)N2[C@H](c3ccc4c(c3)OCO4)c3[nH]c4ccccc4c3C[C@@H]2C1=O
IC50 [1]: > 10000 nM
CL [43]: 5.17 mL/min/kg
IC50 [44]: > 10000 nM
IC50 [45]: > 10000 nM
IC50 [46]: > 10000 nM
IC50 [47]: > 10000 nM
IC50 [48]: > 10000 nM
IC50 [49]: > 10000 nM
Vdss [50]: 5.2 L/kg

Structure (SMILES): CCCOc1ccc(NC(=O)[C@@H]2CCCN2C(C)=O)cc1-c1nc(CC)c(CC)c(=O)[nH]1
Ratio IC50 [41]: 10
IC50 [42]: 0.54 nM
